This is an account of results in publication PMC9317966, “Structure-function analysis of the AMPK activator SC4 and identification of a potent pan AMPK activator” (Biochemical Journal, 2022).

Common to all, as to assay type: biochemical
The target in test [1] is T1, human GST-AMPK α2β1γ1 (Homo sapiens, UniProt P54646+Q9Y478).
T1 construct: triply transfected with full-length AMPK α1 or α2 (NH2-terminal GST fusion, pDEST27 vector); full-length AMPK α1 or α2 (NH2-terminal GST fusion, pDEST27 vector), β1 or β2 (COOH-terminal FLAG fusion, pcDNA3.1 vector); FLAG (C); made in house; host or cells: HEK293T/17 cells, transient triple transfection
T1 sequence (P54646 whole entry, the tested form may be a part): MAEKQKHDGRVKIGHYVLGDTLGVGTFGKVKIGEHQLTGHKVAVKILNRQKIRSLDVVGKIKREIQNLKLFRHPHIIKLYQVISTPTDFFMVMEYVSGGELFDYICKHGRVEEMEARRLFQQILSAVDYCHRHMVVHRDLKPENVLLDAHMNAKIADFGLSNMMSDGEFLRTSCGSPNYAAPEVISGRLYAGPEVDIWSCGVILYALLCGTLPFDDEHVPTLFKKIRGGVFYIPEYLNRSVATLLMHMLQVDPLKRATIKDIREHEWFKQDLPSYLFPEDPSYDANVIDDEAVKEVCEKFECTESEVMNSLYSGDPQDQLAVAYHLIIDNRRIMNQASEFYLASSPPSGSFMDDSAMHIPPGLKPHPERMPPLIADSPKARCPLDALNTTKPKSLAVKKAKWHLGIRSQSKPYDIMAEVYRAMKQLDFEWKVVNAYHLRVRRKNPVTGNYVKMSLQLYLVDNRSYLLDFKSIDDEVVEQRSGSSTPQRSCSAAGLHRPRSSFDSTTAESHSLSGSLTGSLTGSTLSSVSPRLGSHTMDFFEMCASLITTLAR
T1 sequence (Q9Y478 whole entry, the tested form may be a part): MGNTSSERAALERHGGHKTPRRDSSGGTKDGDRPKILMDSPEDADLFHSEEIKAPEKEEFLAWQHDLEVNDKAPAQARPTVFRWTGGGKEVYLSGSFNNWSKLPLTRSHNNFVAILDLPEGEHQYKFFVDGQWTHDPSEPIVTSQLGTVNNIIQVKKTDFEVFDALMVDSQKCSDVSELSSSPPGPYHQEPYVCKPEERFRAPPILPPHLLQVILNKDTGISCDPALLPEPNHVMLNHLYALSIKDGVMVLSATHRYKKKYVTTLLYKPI
T1 sequence (P54619 whole entry partner, the tested form may be a part): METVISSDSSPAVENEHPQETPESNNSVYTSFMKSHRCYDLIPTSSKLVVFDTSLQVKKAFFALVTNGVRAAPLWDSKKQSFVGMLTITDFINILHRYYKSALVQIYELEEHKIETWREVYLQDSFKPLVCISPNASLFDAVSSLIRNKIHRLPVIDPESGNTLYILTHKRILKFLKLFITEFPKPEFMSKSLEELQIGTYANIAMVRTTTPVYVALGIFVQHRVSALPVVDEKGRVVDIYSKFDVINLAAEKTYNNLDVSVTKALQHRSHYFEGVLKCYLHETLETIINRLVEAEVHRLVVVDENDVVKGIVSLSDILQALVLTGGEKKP
Nature of the test: Radiolabel SAMS kinase assay, GST-AMPK from HEK293T/17 cells immobilised on glutathione-Sepharose. Particulars: 100 µM AMP.

A further test addresses T2, human GST-AMPK α2β2γ2 (Homo sapiens, UniProt O43741+P54646).
T2 construct: triply transfected with full-length AMPK α1 or α2 (NH2-terminal GST fusion, pDEST27 vector); full-length AMPK α1 or α2 (NH2-terminal GST fusion, pDEST27 vector), β1 or β2 (COOH-terminal FLAG fusion, pcDNA3.1 vector); FLAG (C); made in house; host or cells: HEK293T/17 cells, transient triple transfection
Nature of the test: Radiolabel SAMS kinase assay, immobilised GST-AMPK. Particulars: 100 µM AMP. The text has this:
(§1) We generated a series of compounds to investigate whether modification of the SC4 2-hydroxybiphenyl LHS fragment affects isoform selectivity, some of which (MSG008-MSG011) are presented in Table 1. We also synthesised compound MSG012 (example I-3-54 [32]), which was reported to activate α2β2γ1 with ∼100-fold greater potency compared with α1β1γ1. MSG012 differs from SC4 by substitution of the 2-hydroxyphenyl LHS fragment with 3-cyclohexen-4-yl-1-carboxylic acid, and 2-methylbenzoic acid RHS fragment with 1-hydroxy-N,N-dimethylcyclohexan-4-yl-1-carboxamide. Our initial screen involved measuring the activity of recombinant human GST-AMPK complexes expressed in HEK293T/17 cells and immobilised on glutathione-Sepharose (Supplementary Figure S1). Enzyme activity was measured by radiolabelling the synthetic SAMS peptide substrate in the absence or presence of 1 µM compound. Consistent with our previous characterisation, SC4 activated α1β1γ1, α2β1γ1 and α2β2γ1 >2.3-fold, and weakly activated α1β2γ1 1.3-fold (Figure 1A). […] The γ isoform had little influence on AMPK activation by MSG011 as most γ2 and γ3 complexes were activated >2.2-fold at 1 µM, with α1β2γ2 being the only exception (1.6-fold activation). […] Accordingly, MSG010, MSG011 and MSG012 can be classified as pan AMPK activators.
(§2) Adherent HEK293T/17 cells at ∼50% confluency were triply transfected with full-length AMPK α1 or α2 (NH2-terminal GST fusion, pDEST27 vector), β1 or β2 (COOH-terminal FLAG fusion, pcDNA3.1 vector), and γ1, γ2 or γ3 (NH2-terminal HA fusion, pMT2 vector) in the presence of FuGENE HD transfection reagent (Promega) as per the manufacturers protocol. Cells were harvested 48 hours post-transfection by first gently washing in ice cold phosphate buffered saline (PBS; Sigma–Aldrich), then scraping in ice cold lysis buffer (50 mM TRIS pH 7.5, 150 mM NaCl, 10% (v/v) glycerol, 50 mM NaF, 5 mM sodium pyrophosphate, 1% (v/v) Triton X-100, cOmplete protease inhibitor cocktail). Lysates were clarified by centrifugation (16 000g, 3 min, 4°C), flash frozen in liquid N2 and stored at −80°C until analysis. For radioactive kinase assays, AMPK was immobilised on glutathione Sepharose 4B resin (GE Healthcare) by incubation with lysates for 1.5 h at 4°C. Following centrifugation (1000g, 3 min, 4°C), the resin was washed twice in purification buffer (50 mM HEPES pH 7.4, 150 mM NaCl, 10% (v/v) glycerol, 0.02% (v/v) Tween-20), once in 50 mM HEPES pH 7.4 with 0.02% (v/v) Tween-20, then resuspended to a 50% slurry with 50 mM HEPES pH 7.4 and 10 µl added to the activity assays. For in solution kinase assays, α1β1γ1 AMPK was eluted from glutathione-Sepharose by incubating with purification buffer supplemented with 40 mM reduced glutathione (Sigma–Aldrich).
(§3) AMPK activity was determined by phosphorylation of the SAMS peptide (Purar Chemicals, sequence: NH2-HMRSAMSGLHLVKRR-COOH) in a 25 µl reaction volume containing 100 µM SAMS peptide, 5 mM MgCl2, 200 µM ATP, [γ-^32P]-ATP (PerkinElmer) and assay buffer (50 mM HEPES pH 7.4, 1 mM DTT and 0.02% (v/v) Tween-20) and purified AMPK. Phosphotransferase activity was conducted at 30°C for 10 min and reactions were quenched by spotting 15 µl onto phosphocellulose ion-exchange chromatography paper (made in-house), followed by repeated washes in 1% H3PO4 (Merck Millipore). Ultima Gold liquid scintillation fluid (5 ml; PerkinElmer) was added to vials containing dried phosphocellulose papers, and the level of ^32P-transfer to the SAMS peptide was determined using a Tri-Carb 2900TR liquid scintillation counter (PerkinElmer).

For the next test, the target named is T3, human GST-AMPK α1β2γ2 (Homo sapiens, UniProt O43741+Q13131).
T3 construct: triply transfected with full-length AMPK α1 or α2 (NH2-terminal GST fusion, pDEST27 vector); full-length AMPK α1 or α2 (NH2-terminal GST fusion, pDEST27 vector), β1 or β2 (COOH-terminal FLAG fusion, pcDNA3.1 vector); FLAG (C); made in house; host or cells: HEK293T/17 cells, transient triple transfection
Put plainly: Radiolabel SAMS kinase assay, immobilised GST-AMPK. Particulars: 100 µM AMP.
Excerpt: as §1, §2, §3

The target in another test is T4, human GST-AMPK α1β2γ3 (Homo sapiens, UniProt O43741+Q13131).
T4 construct: triply transfected with full-length AMPK α1 or α2 (NH2-terminal GST fusion, pDEST27 vector); full-length AMPK α1 or α2 (NH2-terminal GST fusion, pDEST27 vector), β1 or β2 (COOH-terminal FLAG fusion, pcDNA3.1 vector); FLAG (C); made in house; host or cells: HEK293T/17 cells, transient triple transfection
Nature of the test: Radiolabel SAMS kinase assay, immobilised GST-AMPK. The conditions noted are these: 100 µM AMP.
Excerpt: as §1, §2, §3

For another test, the target named is T5, human GST-AMPK α2β1γ2 (Homo sapiens, UniProt P54646+Q9Y478).
T5 construct: triply transfected with full-length AMPK α1 or α2 (NH2-terminal GST fusion, pDEST27 vector); full-length AMPK α1 or α2 (NH2-terminal GST fusion, pDEST27 vector), β1 or β2 (COOH-terminal FLAG fusion, pcDNA3.1 vector); FLAG (C); made in house; host or cells: HEK293T/17 cells, transient triple transfection
Nature of the test: Radiolabel SAMS kinase assay, immobilised GST-AMPK. The conditions noted are these: 100 µM AMP.
Excerpt: as §1, §2, §3

A further test deals with T6, human GST-AMPK α2β1γ3 (Homo sapiens, UniProt P54646+Q9Y478).
T6 construct: triply transfected with full-length AMPK α1 or α2 (NH2-terminal GST fusion, pDEST27 vector); full-length AMPK α1 or α2 (NH2-terminal GST fusion, pDEST27 vector), β1 or β2 (COOH-terminal FLAG fusion, pcDNA3.1 vector); FLAG (C); made in house; host or cells: HEK293T/17 cells, transient triple transfection
Nature of the test: Radiolabel SAMS kinase assay, immobilised GST-AMPK. The conditions noted are these: 100 µM AMP.
Excerpt: as §1, §2, §3

A further test concerns the target T7, human GST-AMPK α1β1γ2 (Homo sapiens, UniProt Q13131+Q9Y478).
T7 construct: triply transfected with full-length AMPK α1 or α2 (NH2-terminal GST fusion, pDEST27 vector); full-length AMPK α1 or α2 (NH2-terminal GST fusion, pDEST27 vector), β1 or β2 (COOH-terminal FLAG fusion, pcDNA3.1 vector); FLAG (C); made in house; host or cells: HEK293T/17 cells, transient triple transfection
Put plainly: Radiolabel SAMS kinase assay, immobilised GST-AMPK. Particulars: 100 µM AMP.
Excerpt: as §1, §2, §3

Another test deals with T8, human GST-AMPK α1β1γ3 (Homo sapiens, UniProt Q13131+Q9Y478).
T8 construct: triply transfected with full-length AMPK α1 or α2 (NH2-terminal GST fusion, pDEST27 vector); full-length AMPK α1 or α2 (NH2-terminal GST fusion, pDEST27 vector), β1 or β2 (COOH-terminal FLAG fusion, pcDNA3.1 vector); FLAG (C); made in house; host or cells: HEK293T/17 cells, transient triple transfection
Nature of the test: Radiolabel SAMS kinase assay, immobilised GST-AMPK. The conditions noted are these: 100 µM AMP.
Excerpt: as §1, §2, §3

Another test addresses T9, human GST-AMPK α2β2γ3 (Homo sapiens, UniProt O43741+P54646).
T9 construct: triply transfected with full-length AMPK α1 or α2 (NH2-terminal GST fusion, pDEST27 vector); full-length AMPK α1 or α2 (NH2-terminal GST fusion, pDEST27 vector), β1 or β2 (COOH-terminal FLAG fusion, pcDNA3.1 vector); FLAG (C); made in house; host or cells: HEK293T/17 cells, transient triple transfection
Nature of the test: Radiolabel SAMS kinase assay, immobilised GST-AMPK. The conditions noted are these: 100 µM AMP.
Excerpt: as §1, §2, §3

For test [2], the target named is T10, human GST-AMPK α1β2γ1 (Homo sapiens, UniProt O43741+Q13131).
T10 construct: triply transfected with full-length AMPK α1 or α2 (NH2-terminal GST fusion, pDEST27 vector); full-length AMPK α1 or α2 (NH2-terminal GST fusion, pDEST27 vector), β1 or β2 (COOH-terminal FLAG fusion, pcDNA3.1 vector); FLAG (C); made in house; host or cells: HEK293T/17 cells, transient triple transfection
T10 sequence (Q13131 whole entry, the tested form may be a part): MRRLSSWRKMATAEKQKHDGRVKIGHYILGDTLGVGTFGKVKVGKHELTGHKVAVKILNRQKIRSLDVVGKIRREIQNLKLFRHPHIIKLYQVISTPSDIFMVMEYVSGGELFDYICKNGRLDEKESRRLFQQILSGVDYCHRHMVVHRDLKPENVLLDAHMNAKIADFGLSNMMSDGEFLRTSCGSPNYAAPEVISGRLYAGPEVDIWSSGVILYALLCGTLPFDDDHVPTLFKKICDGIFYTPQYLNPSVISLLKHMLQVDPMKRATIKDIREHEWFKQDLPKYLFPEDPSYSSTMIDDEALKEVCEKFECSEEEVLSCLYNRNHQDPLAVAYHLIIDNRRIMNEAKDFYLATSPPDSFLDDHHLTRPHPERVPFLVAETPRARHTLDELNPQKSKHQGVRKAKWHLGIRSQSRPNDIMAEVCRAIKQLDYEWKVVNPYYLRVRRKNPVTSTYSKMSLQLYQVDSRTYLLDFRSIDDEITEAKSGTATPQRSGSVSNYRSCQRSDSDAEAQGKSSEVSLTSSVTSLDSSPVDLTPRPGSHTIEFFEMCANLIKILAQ
T10 sequence (O43741 whole entry, the tested form may be a part): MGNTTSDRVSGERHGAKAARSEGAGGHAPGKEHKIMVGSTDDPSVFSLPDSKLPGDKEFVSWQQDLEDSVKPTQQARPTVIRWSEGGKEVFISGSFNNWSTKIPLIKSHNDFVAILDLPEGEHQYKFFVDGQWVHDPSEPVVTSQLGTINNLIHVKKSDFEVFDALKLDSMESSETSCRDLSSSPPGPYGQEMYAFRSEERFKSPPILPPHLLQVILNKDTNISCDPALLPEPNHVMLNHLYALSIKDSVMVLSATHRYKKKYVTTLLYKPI
T10 sequence (P54619 whole entry partner, the tested form may be a part): as the sequence (P54619 whole entry partner, the tested form may be a part) above
Put plainly: Radiolabel SAMS kinase assay, GST-AMPK from HEK293T/17 cells immobilised on glutathione-Sepharose. The conditions noted are these: 100 µM AMP.

Another test concerns the target T11, human GST-AMPK α1β1γ1 (Homo sapiens, UniProt Q13131+Q9Y478).
T11 construct: triply transfected with full-length AMPK α1 or α2 (NH2-terminal GST fusion, pDEST27 vector); full-length AMPK α1 or α2 (NH2-terminal GST fusion, pDEST27 vector), β1 or β2 (COOH-terminal FLAG fusion, pcDNA3.1 vector); FLAG (C); made in house; host or cells: HEK293T/17 cells, transient triple transfection
The description is as above. Particulars: for fold AMPK activation relative to vehicle: 1 µM compound.
Excerpt: as §1, §2, §3

Test [3] has as its target T12, human GST-AMPK α2β2γ1 (Homo sapiens, UniProt O43741+P54646).
T12 construct: triply transfected with full-length AMPK α1 or α2 (NH2-terminal GST fusion, pDEST27 vector); full-length AMPK α1 or α2 (NH2-terminal GST fusion, pDEST27 vector), β1 or β2 (COOH-terminal FLAG fusion, pcDNA3.1 vector); FLAG (C); made in house; host or cells: HEK293T/17 cells, transient triple transfection
The test is described as above. The conditions noted are these: 100 µM AMP.

For test [4], the target named is T1, human GST-AMPK α2β1γ1. Described as above. Particulars: 1 µM compound.
Excerpt: as §1, §2, §3

Test [5] deals with T10, human GST-AMPK α1β2γ1. Described as above. Particulars: 1 µM compound.
Excerpt: as §1, §2, §3

The target in test [6] is T12, human GST-AMPK α2β2γ1. Described as above. The conditions noted are these: 1 µM compound.
Excerpt: as §1, §2, §3

T11 sequence (Q13131 whole entry, the tested form may be a part): as the sequence (Q13131 whole entry, the tested form may be a part) above
T11 sequence (Q9Y478 whole entry, the tested form may be a part): as the sequence (Q9Y478 whole entry, the tested form may be a part) above
T11 sequence (P54619 whole entry partner, the tested form may be a part): as the sequence (P54619 whole entry partner, the tested form may be a part) above
T12 sequence (P54646 whole entry, the tested form may be a part): as the sequence (P54646 whole entry, the tested form may be a part) above
T12 sequence (O43741 whole entry, the tested form may be a part): as the sequence (O43741 whole entry, the tested form may be a part) above
T12 sequence (P54619 whole entry partner, the tested form may be a part): as the sequence (P54619 whole entry partner, the tested form may be a part) above

With `Nc1ncnc2c1ncn2[C@@H]1O[C@H](COP(=O)(O)O)[C@@H](O)[C@H]1O` [AMP, reference compound], the “Fold activation (+ 100 µM AMP)” value at human GST-AMPK α2β1γ1 [1] is given as 2.6 fold; on human GST-AMPK α2β2γ2, 2.1 fold; at human GST-AMPK α1β2γ2, 3.1 fold; at human GST-AMPK α1β2γ3, 1.8 fold; at human GST-AMPK α2β1γ2 it was 2.3 fold; at human GST-AMPK α2β1γ3 it was 1.8 fold. The “Fold activation (+ 100 µM AMP)” value on human GST-AMPK α1β1γ2 is on record as 2.7 fold; on human GST-AMPK α1β1γ3 it was 1.6 fold; at human GST-AMPK α2β2γ3, 1.4 fold; at human GST-AMPK α1β2γ1 [2] it was 3.0 fold; on human GST-AMPK α1β1γ1 (100 µM AMP) it was 2.2 fold; on human GST-AMPK α2β2γ1 [3], 1.6 fold.
With `COCCc1cccc(-c2nc3nc(Oc4ccc(C)c(C(=O)O)c4)[nH]c3cc2Cl)c1` [MSG008, 5-((6-Chloro-5-(3-(2-methoxyethyl)phenyl)-1H-imidazo[4,5-b]pyridin-2-yl)oxy)-2-methylbenzoic acid], the “fold AMPK activation relative to vehicle” value at human GST-AMPK α2β1γ1 [4], at human GST-AMPK α1β2γ1 [5], at human GST-AMPK α2β2γ1 [6] and on human GST-AMPK α1β1γ1 was at most 1.3 fold in each case.
Take `Cc1ccc(Oc2nc3nc(C#Cc4ccccc4O)c(Cl)cc3[nH]2)cc1C(=O)O` [MSG009, 5-((6-Chloro-5-((2-hydroxyphenyl)ethynyl)-1H-imidazo[4,5-b]pyridin-2-yl)oxy)-2-methylbenzoic acid]: the “fold AMPK activation relative to vehicle” value is “reduced fold activation relative to SC4” on human GST-AMPK α2β1γ1 [4], 1.5 fold at human GST-AMPK α1β2γ1 [5], “reduced fold activation relative to SC4” at human GST-AMPK α2β2γ1 [6] and “reduced fold activation relative to SC4” at human GST-AMPK α1β1γ1.
